Measured values reported in patent publication US4963565A, “In vivo treatment of mycobacterial infections with 6-cyclo octylamino-5,8-quinoline quinone” (priority 1986, dated 1990).

Columns and labels:
M. intracellulare [1] = assay: In vitro activity against serovars of M. intracellulare, radiometric (Bactec) method; assay type: cell-based
Experimental: A study of the effect of CQQ on different serovars of M. intracellulare in vitro was performed using the radiometric (Bactec) method. Maximum growth index (GI) of 999 was determined (for control models) in terms of the number of days necessary for the culture to reach this stage. GI is measured using the special instrument which reads the amount of ^14 C labelled CO2 liberated from the strains using the ^14 C labelled substrates.

[2] = test system: M. intracellulare (571-8 strain); assay: In vivo activity of different doses against acute M. intracellulare infections in Beige mice (Example III); design: species or system M. intracellulare (host: Beige mice)
lymphocytes = assay: Effect on chromosomal structures in lymphocytes; assay type: cell-based, human; details: 0.5 ml of 10 mcg/ml solution
Experimental: In order to determine the effect of CQQ on chromosomes, blood was collected from a healthy volunteer, and lymphocytes were isolated from the sample. These were cultivated in a folate deficient medium, and after approximately 24 hours of cultivation, 0.5 ml of a solution of CQQ (10 mcg/ml) was added to the culture. Incubation at 37° C. for 72 hours followed. The lymphocytes were then harvested, following routine laboratory porocedures and were stained with Giemsa stain.

M. intracellulare [3] = details: Gangadharam et al.; cited from earlier work
M. tuberculosis H37 Rv = assay: In vivo activity against M. tuberculosis infections in C57Bl/6 mice (Example VII); design: species or system M. tuberculosis (host: C57Bl/6 mice)
Experimental: Animal studies were performed using the mouse model. Mice are accepted as excellent experimental models for human mycobacterial diseases. While earlier literature (see review by Youmans etc.), have established C57Bl/6 mice models for in vivo studies with M. tuberculosis, mouse models for experimental M. intracellulare infections were difficult until recently (see review by Gangadharam). The Beige mouse (C57Bl/6/bg/bg) model established by Gangadharam et al is now used for studies with M. intracellulare. In the in vivo studies described below, C57Bl/6 and Beige mice models are used for M. tuberculosis and M. intracellulare infections, respectively.
In chemotherapy studies, various concentrations of CQQ and ansamycin (LM 427), were used. Lung and spleen tissue samples from the animal models were used. "CFU" refers to the "colony forming units" observed when culturing these samples.
In all of the following experiments, spleens and lungs were removed aseptically from the subject animals, at different periods of challenge. The organs were ground and samples of the ground organs were plated in aliquots on 7H11 agar medium. If the bacteria were present, they would grow, forming CFUs. The plates were incubated at 37° C. (with 5% CO2 for M. tuberculosis), and read after three weeks incubation.
CFUs were counted by visual enumeration. If increased magnification was necessary, this was done using a plate microscope.
In this experiment C57Bl/6 mice were infected intravenously with M. tuberculosis H37 Rv strain and one group was treated daily orally with 10 mg/kg of CQQ and the others as untreated infected control.

[4] = Acute toxicity in C57Bl/6 mice; assay type: in vivo; details: mouse, in vivo, ip; C57Bl/6 mice, intraperitoneal
Experimental: (§1) Studies were performed to obtain toxicity data. […] Extrapolating, this corresponds to an LD50 of approximately 40 gr for a 70 kg subject. For chronic toxicity studies both C57Bl/6 and Beige mice were administered doses of 40 mg/kg/day, and intraperitoneal doses over 30 mg/kg for more than 60 days.

C57Bl/6 mice = assay: Acute toxicity in C57Bl/6 mice; assay type: in vivo; details: 70 kg subject, extrapolated from mouse LD50
Experimental: as §1

blood clotting = assay: Effect on blood clotting; assay type: in vivo; details: oral, intraperitoneal and intramuscular, varying amounts, FIG. 8
Experimental: Due to its relationship to Vitamin K, there was some concern as to the effect CQQ would have on blood clotting. Varying amounts of CQQ were administered orally, intraperitoneally, and intramuscularly.

[5] = test system: Mycobacterium intracellulare strain 571-8; assay: In vivo chemotherapeutic activity against M. intracellulare, acute model in Beige mice (Example 1); design: species or system M. intracellulare (host: Beige mice, C57Bl/6/bg/bg); details: FIG. 1
[6] = 8.0 mcg/ml, serovar 3, strain 7-17
[7] = 8.0 mcg/ml, serovar 3, strain 9-75
[8] = 8.0 mcg/ml, serovar 3, strain 12-1
[9] = 8.0 mcg/ml, serovar 3, strain 971-8
[10] = 8.0 mcg/ml, serovar 4, strain 5-13
[11] = 8.0 mcg/ml, serovar 4, strain 7-55
[12] = 8.0 mcg/ml, serovar 4, strain 8-50
[13] = 8.0 mcg/ml, serovar 4, strain TMC1463
[14] = 8.0 mcg/ml, serovar 9, strain 2-10
[15] = 8.0 mcg/ml, serovar 9, strain 6-38
[16] = 8.0 mcg/ml, serovar 9, strain 7-25
[17] = 8.0 mcg/ml, serovar 9, strain 1784-286
[18] = 8.0 mcg/ml, serovar 14, strain 7-3
[19] = 8.0 mcg/ml, serovar 14, strain 7-43
[20] = 8.0 mcg/ml, serovar 14, strain BOONE
[21] = 8.0 mcg/ml, serovar 14, strain P-39
[22] = 16.0 mcg/ml, serovar 3, strain 7-17
[23] = 16.0 mcg/ml, serovar 3, strain 9-75
[24] = 16.0 mcg/ml, serovar 3, strain 12-1
[25] = 16.0 mcg/ml, serovar 3, strain 971-8
[26] = 16.0 mcg/ml, serovar 4, strain 5-13
[27] = 16.0 mcg/ml, serovar 4, strain 7-55
[28] = 16.0 mcg/ml, serovar 4, strain 8-50
[29] = 16.0 mcg/ml, serovar 4, strain TMC1463
[30] = 16.0 mcg/ml, serovar 9, strain 2-10
[31] = 16.0 mcg/ml, serovar 9, strain 6-38
[32] = 16.0 mcg/ml, serovar 9, strain 7-25
[33] = 16.0 mcg/ml, serovar 9, strain 1784-286
[34] = 16.0 mcg/ml, serovar 14, strain 7-3
[35] = 16.0 mcg/ml, serovar 14, strain 7-43
[36] = 16.0 mcg/ml, serovar 14, strain BOONE
[37] = 16.0 mcg/ml, serovar 14, strain P-39

Structure (SMILES): O=C1C(NC2CCCCCCC2)=CC(=O)c2ncccc21 [CQQ, 6-cyclo octylamino-5,8-quinoline quinone]
- Day maximum GI achieved (M. intracellulare [1]; [6]): 2 days
- Maximum GI (M. intracellulare [1]; [6]): 16
- Day maximum GI achieved (M. intracellulare [1]; [7]): 2 days
- Maximum GI (M. intracellulare [1]; [7]): 22
- Day maximum GI achieved (M. intracellulare [1]; [8]): 2 days
- Maximum GI (M. intracellulare [1]; [8]): 4
- Day maximum GI achieved (M. intracellulare [1]; [9]): 3 days
- Maximum GI (M. intracellulare [1]; [9]): 20
- Day maximum GI achieved (M. intracellulare [1]; [10]): 1 days
- Maximum GI (M. intracellulare [1]; [10]): 14
- Day maximum GI achieved (M. intracellulare [1]; [11]): 2 days
- Maximum GI (M. intracellulare [1]; [11]): 7
- Day maximum GI achieved (M. intracellulare [1]; [12]): 2 days
- Maximum GI (M. intracellulare [1]; [12]): 15
- Day maximum GI achieved (M. intracellulare [1]; [13]): 1 days
- Maximum GI (M. intracellulare [1]; [13]): 6
- Day maximum GI achieved (M. intracellulare [1]; [14]): 1 days
- Maximum GI (M. intracellulare [1]; [14]): 14
- Day maximum GI achieved (M. intracellulare [1]; [15]): 1 days
- Maximum GI (M. intracellulare [1]; [15]): 13
- Day maximum GI achieved (M. intracellulare [1]; [16]): 4 days
- Maximum GI (M. intracellulare [1]; [16]): 33
- Day maximum GI achieved (M. intracellulare [1]; [17]): 1 days
- Maximum GI (M. intracellulare [1]; [17]): 9
- Day maximum GI achieved (M. intracellulare [1]; [18]): 2 days
- Maximum GI (M. intracellulare [1]; [18]): 5
- Day maximum GI achieved (M. intracellulare [1]; [19]): 1 days
- Maximum GI (M. intracellulare [1]; [19]): 1
- Day maximum GI achieved (M. intracellulare [1]; [20]): 1 days
- Maximum GI (M. intracellulare [1]; [20]): 13
- Day maximum GI achieved (M. intracellulare [1]; [21]): 1 days
- Maximum GI (M. intracellulare [1]; [21]): 21
- Inhibition of the strains (M. intracellulare [1]; 16.0 and 8.0 mcg/ml): Complete inhibition
- Day maximum GI achieved (M. intracellulare [1]; [22]): 1 days
- Maximum GI (M. intracellulare [1]; [22]): 5
- Day maximum GI achieved (M. intracellulare [1]; [23]): 1 days
- Maximum GI (M. intracellulare [1]; [23]): 14
- Day maximum GI achieved (M. intracellulare [1]; [24]): 2 days
- Maximum GI (M. intracellulare [1]; [24]): 6
- Day maximum GI achieved (M. intracellulare [1]; [25]): 1 days
- Maximum GI (M. intracellulare [1]; [25]): 8
- Day maximum GI achieved (M. intracellulare [1]; [26]): 1 days
- Maximum GI (M. intracellulare [1]; [26]): 4
- Day maximum GI achieved (M. intracellulare [1]; [27]): 2 days
- Maximum GI (M. intracellulare [1]; [27]): 4
- Day maximum GI achieved (M. intracellulare [1]; [28]): 1 days
- Maximum GI (M. intracellulare [1]; [28]): 6
- Day maximum GI achieved (M. intracellulare [1]; [29]): 1 days
- Maximum GI (M. intracellulare [1]; [29]): 5
- Day maximum GI achieved (M. intracellulare [1]; [30]): 1 days
- Maximum GI (M. intracellulare [1]; [30]): 12
- Day maximum GI achieved (M. intracellulare [1]; [31]): 1 days
- Maximum GI (M. intracellulare [1]; [31]): 6
- Day maximum GI achieved (M. intracellulare [1]; [32]): 1 days
- Maximum GI (M. intracellulare [1]; [32]): 7
- Day maximum GI achieved (M. intracellulare [1]; [33]): 1 days
- Maximum GI (M. intracellulare [1]; [33]): 5
- Day maximum GI achieved (M. intracellulare [1]; [34]): 1 days
- Maximum GI (M. intracellulare [1]; [34]): 4
- Day maximum GI achieved (M. intracellulare [1]; [35]): 1 days
- Maximum GI (M. intracellulare [1]; [35]): 9
- Day maximum GI achieved (M. intracellulare [1]; [36]): 1 days
- Maximum GI (M. intracellulare [1]; [36]): 7
- Day maximum GI achieved (M. intracellulare [1]; [37]): 1 days
- Maximum GI (M. intracellulare [1]; [37]): 22
- Effect on GI rates of all M. intracellulare strains (M. intracellulare [1]; both concentrations (16.0 and 8.0 mcg/ml)): dramatic decrease in GI rates for all M. intracellulare strains
- Dose comparison, 20 vs 10 mg/kg ([2]; 20 mg/kg vs 10 mg/kg): The dose of 20 mg/kg is better than 10 mg/kg dose
- Inhibitory activity, reduction of CFU counts from spleens and lungs ([2]; 10 or 20 mg/kg, FIGS. 3 and 4): considerable inhibitory activity
- Duration of statistically significant differences in CFU counts ([2]; 10 or 20 mg/kg, spleens and lungs (P 0.05)): up to 6 weeks
- Effect in lung vs spleen ([2]; FIG. 4 vs FIG. 3): more pronounced in the lung (FIG. 4) than in the spleen
- Assessment of chromosomal breaks (lymphocytes; 72 hours): fully within the normal limits
- Total number of chromosomal breaks (lymphocytes; 72 hours at 37° C., at least 50 cells counted): 7
- Cells with chromosomal breaks (lymphocytes; 72 hours at 37° C., of at least 50 cells counted): 5
- In vitro effectiveness against M. intracellulare (M. intracellulare [3]): effective against M. intracellulare and M. tuberculosis in vitro
- Mean CFU counts from spleens and lungs vs untreated controls (M. tuberculosis H37 Rv; 10 mg/kg daily orally, end of 4 weeks): considerable reduction
- Mean colony forming unit (CFU) count, lung (M. tuberculosis H37 Rv; 10 mg/kg daily orally, end of 4 weeks, control 6.42): 4.21 LOG CFU
- Mean colony forming unit (CFU) count, spleen (M. tuberculosis H37 Rv; 10 mg/kg daily orally, end of 4 weeks, control 6.90): 4.90 LOG CFU
- Antituberculosis effectiveness (M. tuberculosis H37 Rv; conclusion from Table 2): clearly an effective antituberculosis agent
- LD50 [4]: 564 mg/kg
- LD50 extrapolated to a 70 kg subject (C57Bl/6 mice): approximately 40 gr
- Blood clotting time (blood clotting): little change in blood clotting time
- Activity vs infected untreated control ([5]; 10 mg/kg orally daily, each time point (P 0.05)): considerable activity with a statistically significant difference
- Activity compared with ansamycin ([5]; both 10 mg/kg orally daily): better than that of ansamycin
